# B1: 2D5F7: IgG2b mAb of hybridoma 2D5F7, specific for Fba peptide; VH SEQ ID NO: 68, VL SEQ ID NO: 70 (antibody, V domains shown)
# VH: MERHWIFLFLLSVTAGVHSQVQLQQSAAELARPGASVKMSCKASGYTFSSYTMHWVKQRPGQGLEWIGYINPSSGYTDYNQKFKDKTTLTADKSSSTAYMQLSSLTSEDSAVYYCARLYDNYDYYAMDYWGQGTSVTVSS
# VL: MDSQAQVLILLLLWVSGTCGDIVMSQSPSSLAVSAGEKVTMSCKSSQSLLNSRIRKNYLAWYQQKPGQSPKLLIYWASTRESGVPDRFTGSGSGTDFTLTISSVQADDLAVYYCKQSYNLLTFGAGTKLELK
# Tested on: C. albicans 3153A
# Test: Passive transfer of mAbs or mAb cocktails i.p. before lethal i.v. challenge, mouse model of human disseminated candidiasis
# Format: in vivo, Candida albicans
# Details: Table 14; mAb removed by absorption with Candida cells before transfer
# Description: Passive transfer of MAbs by intraperitoneal (i.p.) route. The preventive effect of peptide-specific mAbs listed in Table 3 and Table 4 in naïve mice was examined by passive transfer experiments. […] For testing, mice received 0.5 ml of each mAb or 1 ml of two mAbs in combination (0.5 ml of each) intraperitoneally. […] The negative control materials tested in mice were single mAb or DPBS. Control mice received 0.5 ml of the DPBS diluents or single mAb treatment. For each condition, 6- to 8-week-old female BALB/c mice (NCI) were given 0.5 ml of test mAb, or 1 ml two mAb cocktails or control materials intraperitoneally, followed 4 h later by 0.1 ml intravenously of defined lethal dose of yeast cells per milliliter of DPBS. Mice were divided into groups with five mice each and three independent experiments were carried out. In some experiments, mice were given the same dose of mAbs or control materials on every other day post-challenge for two weeks, as compared to the protective efficacy of mAb in combinations. All mice were sacrificed on day 50. For animal groups that were challenged non-albicans candida species, determined optimal challenge doses were applied for each candida strain.
# The hybridoma clones that produce the universal peptide specific mAbs listed above were generated from mice vaccinated with peptide-pulsed dendritic cell (DC) preparation as described previously (6). The isotype of mAb was determined with a Mouse Monoclonal Antibody Isotyping Kit (Pierce, USA). […] In detail, BALB/c mice were given an i.p dose of each mAb four hours before hematogenous challenged with a lethal dose of C. albicans3153A cells. […] Importantly, passive protection was prevented by removal of the mAbs by absorption with Candida cells before transfer, which provided strong additional evidence for the protection being due to the mAb.
# The three cell wall proteins were selected because of expression during human candidiasis and cell wall association, and included fructose-bisphosphate aldolase (Fba); methyltetrahydropteroyltriglutamate-homocysteine methyltransferase (Met6); hyphal wall protein-1 (Hwp1). The hybridoma clones listed at Table 5, which produce the peptide specific mAbs, were generated from mice vaccinated with peptide-pulsed dendritic cell (DC) preparation as described previously (6). The isotype of mAb was determined with a Mouse Monoclonal Antibody Isotyping Kit (Pierce, USA). […] Importantly, passive protection was prevented by removal of the mAbs by absorption with Candida cells before transfer, which provided strong additional evidence for the protection being due to the mAb).
# The preventive effect of each universal peptide-specific mAb was examined by passive transfer experiments. […] For testing, 5 mice of each tested group received 0.5 ml of each mAb intraperitoneally. The negative control materials tested in mice were mAbs absorbed with C. albicans yeast cells (3153A) and DPBS. Control mice received 0.5 ml of the DPBS diluents or adsorbed mAb solution. For each condition, 6- to 8-week-old female BALB/c mice (NCI) were given 0.5 ml of test mAb, or control materials intraperitoneally, followed 4 h later by 0.1 ml intravenously of a suspension containing lethal dose of Candida cells per milliliter of DPBS. Mice were divided into groups with five mice each and three independent experiments were carried out. We have developed neutropenic murine models of disseminated infection by C. glabrata, C. tropicalis and C. parapsilosis. To induce neutropenia, naïve mice received a 200 mg/kg dose of cyclophosphamide (CY) by i.p. on day −3. Prolonged neutropenia were maintained for 30-50 days by giving each animal a 150 mg/kg dose of CY by i.p. every 10 days after infection.
row,Molecule,Protection of adsorbed mAb
1,B1,None

# Same assay, conditions: Table 14; single mAb, C. albicans
Molecule,Protection,Protection (grade word)
B1,(90-100%),High

# Tested on: C. albicans
# Test: Universal double chimeric peptide vaccines, protection against candidiasis in mouse model
# Format: in vivo, Candida albicans
# Details: Table 11; double peptide vaccine formula feasible for human use
# Text: Each chimeric peptide conjugate comprises two peptide epitopes.
Molecule,Protection against Candidiasis in mouse model,Protection against Candidiasis in mouse model (grade word)
TT947-967-GPSL-GPV-M1-GPSL-GPV-P1: double peptide vaccine 3; amidation (C-terminus) and acetylation (N-terminus) (Ac-FNNFTVSFWLRVPKVSASHLEGPSLCFWVNPDCGLKTRGPSLCAILGGSKVSDKI-NH2; cysteine pairing not given here),40-60%,medium
RGD-PADRE-GPV-M2-KK-GPV-P3: double peptide vaccine 11; amidation (C-terminus) and acetylation (N-terminus) (Ac-RGDAKFVAAWTLKAAACTTTIGSFPQTKDIRKKCIVIIGGGDTATVAKK-NH2; cysteine pairing not given here),80-100%,High
RGD-GPV-P3-KK-GPV-M2: double peptide vaccine 4; amidation (C-terminus) and acetylation (N-terminus) (Ac-RGDCIVIIGGGDTATVAKKKKCTTTIGSFPQTKDIR-NH2; cysteine pairing not given here),70-90%,High
RGD-TT947-967-KK-GPV-P3-KK-GPV-M1: double peptide vaccine 9; amidation (C-terminus) and acetylation (N-terminus) (Ac-RGDFNNFTVSFWLRVPKVSASHLEKKCIVIIGGGDTATVAKKKKCFWVNPDCGLKTR-NH2; cysteine pairing not given here),20-40%,Low
PADRE-GPV-M2-KK-GPV-P1: double peptide vaccine 10; amidation (C-terminus) and acetylation (N-terminus) (Ac-AKFVAAWTLKAAACTTTIGSFPQTKDIRKKCAILGGSKVSDKI-NH2; cysteine pairing not given here),20-40%,Low
TT947-967-KK-GPV-P3-KK-GPV-M1: double peptide vaccine 7; amidation (C-terminus) and acetylation (N-terminus) (Ac-FNNFTVSFWLRVPKVSASHLEKKCIVIIGGGDTATVAKKKKCFWVNPDCGLKTR-NH2; cysteine pairing not given here),70-90%,High
RGD-TT830-844-KK-GPV-P3-KK-GPV-M1: double peptide vaccine 8; amidation (C-terminus) and acetylation (N-terminus) (Ac-RGDQYIKANSKFIGITEKKCIVIIGGGDTATVAKKKKCFWVNPDCGLKTR-NH2; cysteine pairing not given here),80-100%,High
TT830-844-KK-GPV-P3-KK-GPV-M2: double peptide vaccine 6; amidation (C-terminus) and acetylation (N-terminus) (Ac-QYIKANSKFIGITEKKCIVIIGGGDTATVAKKKKCTTTIGSFPQTKDIR-NH2; cysteine pairing not given here),40-60%,medium
PADRE-GPV-M1-GPSL-GPV-P1: double peptide vaccine 1; amidation (C-terminus) and acetylation (N-terminus) (Ac-AKFVAAWTLKAAACFWVNPDCGLKTRGPSLCAILGGSKVSDKI-NH2; cysteine pairing not given here),60-90%,High
TT830-844-GPSL-GPV-M1-GPSL-GPV-P1: double peptide vaccine 2; amidation (C-terminus) and acetylation (N-terminus) (Ac-QYIKANSKFIGITEGPSLCFWVNPDCGLKTRGPSLCAILGGSKVSDKI-NH2; cysteine pairing not given here),40-60%,medium
